Holding throughout (assay type): cell-based
Assay [1] relates to Pseudomonas aeruginosa ATCC 6749. The assay can be described thus: Antimicrobial activity MIC/MBC test, Pseudomonas aeruginosa ATCC 6749. The following applies: for MBC: ATCC6749, read-out: MBC (minimum bactericidal concentration); for MIC: ATCC6749, read-out: MIC (minimum inhibitory concentration). The protocol: (§1) The four reference strains were indications of the minimum inhibitory concentration (MIC) and minimum bactericidal concentration (MBC) tests conducted for two newly synthesized compounds of the new quaternary ammonium salts derivatives: 4-[2-(4-bromophenyl)-2-oxoethyl]tetrahydro[1,3]oxazolo[2,3-b][1,3]oxazol-4-ium bromide and 4-[2-(biphenyl-4-yl)-2-oxoethyl]tetrahydro[1,3]oxazolo[2,3-b][1,3]oxazol-4-ium bromide. The study was carried out on strains: Staphylocoocus aureus ATCC 6538, Escherichia coli ATCC 25922, Pseudomonas aeruginosa ATCC 6749, Candida albicans ATCC 10231,

In assay [2] the test system is Escherichia coli ATCC 25922. The assay can be described thus: Antimicrobial activity MIC/MBC test, Escherichia coli ATCC 25922. The following applies: ATCC25922, read-out: MBC (minimum bactericidal concentration). As to the method:
as §1

For assay [3], the system named is Staphylocoocus aureus ATCC 6538. In words: Antimicrobial activity MIC/MBC test, Staphylocoocus aureus ATCC 6538. The following applies: read-out: MBC (minimum bactericidal concentration). As to the method: as §1
The subject of assay [4] is Candida albicans ATCC 10231. In words: Antimicrobial activity MIC/MBC test, Candida albicans ATCC 10231. The following applies: ATCC10231, read-out: MBC (minimum bactericidal concentration). The protocol:
as §1

For the compound `O=C(C[N+]12CCOC1OCC2)c1ccc(-c2ccccc2)cc1.[Br-]` (stereo not shown) [4-[2-(biphenyl-4-yl)-2-oxoethyl]tetrahydro[1,3]oxazolo[2,3-b][1,3]oxazol-4-ium bromide], the MBC in assay [1] was found to be 55.5 mg/mL; in assay [2], 3.47 mg/mL; in assay [3], 0.43 mg/mL; in assay [4] it was 6.94 mg/mL. Further, the MIC in assay [1] is 13.9 mg/mL.

Consider `O=C(C[N+]12CCOC1OCC2)c1ccc(Br)cc1.[Br-]` (stereo not shown) [4-[2-(4-bromophenyl)-2-oxoethyl]tetrahydro[1,3]oxazolo[2,3-b][1,3]oxazol-4-ium bromide], for which the MBC in assay [1] turned out to be 27.8 mg/mL; in assay [2] it was 6.94 mg/mL; in assay [3], 1.73 mg/mL; in assay [4], 27.8 mg/mL. Further, the MIC in assay [1] is 27.8 mg/mL.

Source of the values: US9169267B2, “Quaternary ammonium salts, method for preparation and applications thereof” (Uniwersytet Medyczny IM. Karola Marcinkowskiego, priority 2012, dated 2015).
